Measured values: patent US9034921B2, “Diphenylmethane derivatives as SGLT2 inhibitors” (GREEN CROSS CORPORATION, priority 2011, dated 2015)
pIC50: −log10 of the molar value.

Each compound was assayed against human SGLT2 (Homo sapiens (Human), UniProt P31639) (assay: Inhibitory effects on human SGLT2 activities (14C-AMG uptake, sodium-dependent glucose transport assay)). Conditions: CHO cells stably expressing hSGLT2, 37° C., 2 h, single determinations.
Chain of human SGLT2 (P31639 whole entry): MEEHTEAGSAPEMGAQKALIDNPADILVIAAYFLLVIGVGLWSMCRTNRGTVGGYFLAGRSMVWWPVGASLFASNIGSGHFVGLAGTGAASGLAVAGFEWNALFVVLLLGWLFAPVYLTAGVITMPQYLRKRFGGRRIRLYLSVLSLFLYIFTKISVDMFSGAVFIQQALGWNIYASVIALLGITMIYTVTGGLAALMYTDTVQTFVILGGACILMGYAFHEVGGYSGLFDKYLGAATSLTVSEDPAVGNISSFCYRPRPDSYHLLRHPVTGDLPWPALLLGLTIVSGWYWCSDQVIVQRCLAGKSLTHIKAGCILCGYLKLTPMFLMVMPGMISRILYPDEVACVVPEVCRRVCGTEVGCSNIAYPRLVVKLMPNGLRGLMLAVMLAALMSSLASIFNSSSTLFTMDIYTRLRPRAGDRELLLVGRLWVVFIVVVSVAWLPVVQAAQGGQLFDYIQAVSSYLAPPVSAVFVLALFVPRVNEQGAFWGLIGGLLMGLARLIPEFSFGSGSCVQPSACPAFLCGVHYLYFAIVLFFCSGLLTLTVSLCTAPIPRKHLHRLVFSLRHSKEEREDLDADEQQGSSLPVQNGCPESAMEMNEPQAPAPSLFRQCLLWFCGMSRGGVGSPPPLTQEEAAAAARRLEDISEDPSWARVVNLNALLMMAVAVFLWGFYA
Assay type: cell-based
Outline: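 CHO cells stably expressing hSGLT2 were preincubated 10 min at 37 °C in choline (Na+-free) buffer, then exposed 2 h at 37 °C to compound in Na+ uptake buffer with 8 μM 14C-AMG and 1 mM unlabeled AMG. Radioactivity was scintillation counted; IC50 came from nonlinear regression.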
A pIC50 of 9.13 was found for COc1ccc(Cc2cc([C@@H]3O[C@H](CO)[C@@H](O)[C@H](O)[C@H]3O)c3c(c2C(F)F)CCC3)cc1 [Example E237, (2S,3R,4R,5S,6R)-2-(7-(Difluoromethyl)-6-(4-methoxybenzyl)-2,3-dihydro-1H-inden-4-yl)-6-(hydroxymethyl)tetrahydro-2H-pyran-3,4,5-triol] in this work. A pIC50 of 9.20 was found for CCc1ccc(Cc2cc([C@@H]3O[C@H](CO)[C@@H](O)[C@H](O)[C@H]3O)c3c(c2Cl)CCC3)cc1 [Example E238, (2S,3R,4R,5S,6R)-2-(7-Chloro-6-(4-ethylbenzyl)-2,3-dihydro-1H-inden-4-yl)-6-(hydroxymethyl)tetrahydro-2H-pyran-3,4,5-triol] in this work. A pIC50 of 9.14 was found for CCc1ccc(Cc2cc([C@@H]3O[C@H](CO)[C@@H](O)[C@H](O)[C@H]3O)c3c(c2C(F)F)CCC3)cc1 [Example E239, (2S,3R,4R,5S,6R)-2-(7-(Difluoromethyl)-6-(4-ethylbenzyl)-2,3-dihydro-1H-inden-4-yl)-6-(hydroxymethyl)tetrahydro-2H-pyran-3,4,5-triol] in this work. A pIC50 of 9.04 was found for COc1ccc(Cc2cc([C@@H]3O[C@H](CO)[C@@H](O)[C@H](O)[C@H]3O)c3c(c2Cl)SCC3)cc1 [Example E241, (2S,3R,4R,5S,6R)-2-(7-Chloro-6-(4-methoxybenzyl)-2,3-dihydrobenzo[b]thiophen-4-yl)-6-(hydroxymethyl)tetrahydro-2H-pyran-3,4,5-triol] in this work. A pIC50 of 9.26 was found for COc1ccc(Cc2cc([C@@H]3O[C@H](CO)[C@@H](O)[C@H](O)[C@H]3O)c3c(c2Cl)SCCC3)cc1 [Example E242, (2S,3R,4R,5S,6R)-2-(8-Chloro-7-(4-methoxybenzyl)thiochroman-5-yl)-6-(hydroxymethyl)tetrahydro-2H-pyran-3,4,5-triol] in this work.
